This is an account of results in patent US10433556B2, “Treatment and/or prophylaxis of storage diseases of harvested material” (priority 2011, dated 2019).

The test system of data set [1] is silver scurf on potato tubers. Briefly: Field trial 2010/2011 Germany: Proradix in combination with Imazalil, affection by silver scurf after storage. The data set is classed as in vivo, Helminthosporium solani. The following applies: exclusively Imazalil at the laying and the storage; vs untreated potatoes; FIG. 5 third column. The protocol:
For the treatment of the seed potato at or before the laying into the ground soil Proradix is used as a liquid mordant [Proradix WG (LF 4816-00); Sourcon […] GmbH & Co. KG, Tübingen, Germany], according to the information of the manufacturer in a concentration of 60 g/ha via the spraying method by using a ULV spraying device. Before the storage of the potatoes 20 g of Proradix WG is dissolved in a maximum of 2 l of water per barrel. The application onto the potatoes is also effected by means of a ULV spraying device. The laying of the potato and, if applicable, the treatment with Proradix and/or Imazalil is carried out in springtime and the harvest and storage and, if applicable, the treatment with Proradix and/or Imazalil is carried out in fall of the same year. In a field trial conducted in the years of 2010 and 2011 in Germany according to the EPPO guidelines it was examined in detail, whether Proradix can also be effectively used in combination with the chemical of Imazalil. For this purpose a part of the potatoes remain untreated, a part was treated with the chemical of Imazalil at the laying, and a part was treated at the laying and also before the storage with the chemical of Imazalil, and yet another part was treated at the laying with Imazalil and before the storage with Proradix.

Data set [2] has as its system Helminthosporium solani. Nature of the data set: Field trial 2010/2011 Netherlands: production of spores of the silver scurf pathogen on the potato tuber. The data set is classed as in vivo. Conditions: treatment of the potato before the storage; FIG. 2. The protocol:
(§1) For the treatment of the seed potato at or before the laying into the ground soil Proradix is used as a liquid mordant [Proradix WG (LF 4816-00); Sourcon […] GmbH & Co. KG, Tübingen, Germany], according to the information of the manufacturer in a concentration of 60 g/ha via the spraying method by using a ULV spraying device. Before the storage of the potatoes 20 g of Proradix WG is dissolved in a maximum of 2 l of water per barrel. The application onto the potatoes is also effected by means of a ULV spraying device. The laying of the potato and, if applicable, the treatment with Proradix and/or Imazalil is carried out in springtime and the harvest and storage and, if applicable, the treatment with Proradix and/or Imazalil is carried out in fall of the same year. In a further field trial conducted in the years of 2010/2011 in the Netherlands according to the EPPO guidelines the influence of Proradix in comparison to the chemical standard of Imazalil on the production of spores of the fungal pathogen of Helminthosporium solani, the initiator of the silver scurf, and the rate of germination of the spores on the potato tuber was examined.

Another data set has as its system birds and ducks. The following applies: in vivo; cited from earlier work.
The test system of a further data set is fish. The following applies: in vivo; cited from earlier work.
Data set [3] relates to Helminthosporium solani. Briefly: Field trial 2010/2011 Netherlands: rate of germination of the spores on the potato tuber. The data set is classed as in vivo. Conditions: use of Imazalil; FIG. 3 fourth column. The protocol:
as §1

For `C=CCOC(Cn1ccnc1)c1ccc(Cl)cc1Cl` (centres unmarked) [Imazalil], the “affection by silver scurf after the storage” value in data set [1] is “significantly diminished reduction”. Also, the formation of spores result with Helminthosporium solani [2] is “comparable”. Besides, the “effect on birds and ducks” value with birds and ducks is “causes damages”. In the data set with fish, the toxicity for fish entry is reported as “toxic”. In addition, the “share of spores able to germinate” value in the data set with Helminthosporium solani [3] is on record as “half”.
